Reference: US8178058B2, “High throughput cell-based assays, methods of use and kits” (EMD Millipore Corporation, priority 2007, dated 2012)

Tested on: activated caspases
Assay: Cell based apoptosis assay (FLICA FAM-VAD-FMK staining, gravity washing, flow cytometry)
Conditions: cells treated 2 hours at 37° C with 10, 0.63, 0.06 microMolar Staurosporine vs non-induced control
Description: Cell based apoptosis assay was performed using gravity based filtration.
Cells were treated with increasing concentration of well-known apoptosis inducer (Staurosporine) for 2 hours at 37° C. After induction, cells were treated with FLICA. Unbound FLICAs were removed from the nonapoptotic cells by gravity washing the cells with wash buffer 4 times. After gravity washing cells labeled with FLICAs (FAM-VAD-FMK, pan-caspases FLICA) was examined by flow cytometry.
Shown in FIGS. 10A and B are flow cytometric histograms of FAM-VAD-FMK stained cells from induced (10, 0.63, 0.06 microMolar of Staurosporine) and non-induced control samples.
Notice the dose response.

Compound: CN[C@@H]1C[C@H]2O[C@@](C)([C@@H]1OC)n1c3ccccc3c3c4c(c5c6ccccc6n2c5c31)C(=O)NC4 [Staurosporine]
- apoptotic cell population (FAM-VAD-FMK percent positive population): Increase in apoptotic cell population
